Data set [1] deals with MDA-MB-231 cells. In words: MTT antiproliferative assay, MDA-MB-231. The conditions noted are these: for Antiproliferative effect / selectivity on MDA-MB-231, in words: 10 and 30 μM; for inhibition at 10 µM / inhibition at 30 µM: Homo sapiens, 72 h, values <20% considered negligible, read-out: Growth inhibition (%) ± SEM, MDA-MB-231; for inhibition at 10 µM: MDA-MB-231, 10 μM; for inhibition at 30 µM: MDA-MB-231, 30 μM. The class given is cell-based, human. The essentials:
(§1)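 Absorbance at 545 nm of DMSO-solubilised formazan, formed during a 4 h MTT incubation, gave growth inhibition after 72 h compound treatment at two concentrations, 10 and 30 μM. Seeding was 5000 cells per well with overnight attachment; medium was EMEM plus 10% fetal bovine serum.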
In general terms: Tetrazolium assays rely on reduction of a dye to a coloured formazan, in cell work by metabolically active cells.

The nature of data set [2]: Intestinal-specific parallel artificial membrane permeability assay (PAMPA-GI). The conditions noted are these: for Papp at 4 h, 500 µM: PAMPA, read-out: PAMPA-GI Pe; for Papp at 4 h, 500 µM / PAMPA-GI MR (membrane retention): gradient pH system (pH donor 6.5 → pH acceptor 7.4) after 4 h, at 37 °C, mean ± S.E.M, n = 3; for Intestinal-specific permeability (Pe), category in words: PAMPA-GI. In kind it is in vitro ADME. The procedure, abridged:
(§2)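 Kinetic solubility: filtrates quantified by HPLC-DAD-MS against 5–500 μM calibration, target concentration 500 μM. PAMPA-GI: pH 6.5 phosphate donor, pH 7.4 PBS/5% DMSO acceptor, phosphatidylcholine/cholesterol 2:1 in dodecane membrane, 4 h at 37 °C; Pe and membrane retention calculated from HPLC-DAD-MS concentrations.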

Data set [3] has as its system SiHa cells. The experiment in a line: MTT antiproliferative assay, SiHa. In kind it is cell-based, human. The settings on record: for inhibition at 10 µM / inhibition at 30 µM: Homo sapiens, SiHa, 72 h, values <20% considered negligible, read-out: Growth inhibition (%) ± SEM, SiHa. The essentials: as §1
For data set [4], the system named is NIH/3T3 fibroblasts. In words: MTT assay on fibroblasts (selectivity). The settings on record: Mus musculus, 72 h, values <20% considered negligible, read-out: Growth inhibition (%) ± SEM, NIH/3T3; for inhibition at 10 µM: NIH3T3, 10 μM; for inhibition at 30 µM: NIH3T3, 30 μM. The class given is cell-based, murine. The essentials:
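Cells seeded at 5000 cells/well, treated next day with compounds at 10 μM and 30 μM for 72 h at 37 °C, 5% CO2 in EMEM with 10% FBS. MTT added for 4 h, formazan dissolved in DMSO, absorbance read at 545 nm; cisplatin as reference.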

Data set [5] relates to MCF-7 cells. The experiment in a line: MTT antiproliferative assay, MCF-7. The class given is cell-based, human. The conditions noted are these: for inhibition at 10 µM / inhibition at 30 µM: Homo sapiens, 72 h, values <20% considered negligible, read-out: Growth inhibition (%) ± SEM, MCF-7; for inhibition at 10 µM: MCF7, 10 μM; for inhibition at 30 µM: MCF7, 30 μM; for Antiproliferative effect / selectivity on MCF-7, in words: 10 and 30 μM. The essentials:
as §1

Data set [6] in a line: Kinetic aqueous solubility. The settings on record: for solubility kinetic at 2 h: phosphate buffered saline with 5% DMSO, aqueous with cosolvent or surfactant or cyclodextrin, kinetic from dmso stock, after 2 h, at 37 °C in PBS, pH 7.4, 5% DMSO, target concentration 500 μM, mean ± S.E.M, n = 3; for Kinetic aqueous solubility, category in words: PBS pH 7.4, 37 °C, 2 h. The class given is physicochemical. The essentials: as §2

For data set [7], the system named is HeLa cells. The experiment in a line: MTT antiproliferative assay, HeLa. The class given is cell-based, human. The conditions noted are these: for inhibition at 10 µM / inhibition at 30 µM: Homo sapiens, HeLa, 72 h, values <20% considered negligible, read-out: Growth inhibition (%) ± SEM, HeLa; for Antiproliferative effect on HeLa, in words: 10 and 30 μM. The procedure, abridged:
as §1

Each structure is given as a SMILES string. Converted amounts (≈) assume the structure as drawn. “Also recorded” adds a separate entry of the source.

By melting point is commonly meant the temperature of the solid-liquid transition. The term solubility (kinetic) denotes solubility judged after dilution from a stock solution rather than from solid. In the case of `COC(=O)[C@]1(C)CCC[C@@]2(C)C3CC[C@]4(O)C[C@@]3(CCC21)[C@@H](O)[C@]4(O)CN(C)Cc1ccccc1` (stereo partly drawn) [Compound 6, (4R,6aR,7R,8R,9S,11bS)-Methyl 8-((Benzyl(methyl)amino)methyl)-7,8,9-trihydroxy-4,11b-dimethyltetradecahydro-6a,9-methanocyclohepta[a]naphthalene-4-carboxylate], the melting point fell in the range of 162 to 166 °C. In data set [1], the “Antiproliferative effect / selectivity on MDA-MB-231, in words” value is given as “slight selectivity”; the inhibition at 10 µM is less than 20%; the inhibition at 30 µM is 82.56 ± 0.69%. In addition, in data set [2], the Papp at 4 h, 500 µM turned out to be 0.23 ± 0.08 ×10⁻⁶ cm/s and the “PAMPA-GI MR (membrane retention)” value is 67.3 ± 8.6%. In addition, in data set [3], the inhibition at 10 µM was less than 20% and the inhibition at 30 µM was less than 20%. Further, in data set [4], the inhibition at 10 µM was less than 20% and the inhibition at 30 µM came to 89.3 ± 2.62%. In data set [5], the inhibition at 10 µM is less than 20% and the inhibition at 30 µM is 51.7 ± 2.54%. In addition, the kinetic solubility at 2 h in data set [6] stood at 114 ± 16 µM (≈ 55.5 µg/mL). For the same compound, in data set [7], the inhibition at 10 µM is less than 20% and the inhibition at 30 µM is less than 20%.

Regarding `COC(=O)[C@]1(C)CCC[C@@]2(C)C3CC[C@]4(O)C[C@@]3(CCC21)[C@@H](O)[C@]4(O)CNCc1ccccc1` (stereo partly drawn) [Compound 5, (4R,6aR,7R,8R,9S,11bS)-Methyl 8-((Benzylamino)methyl)-7,8,9-trihydroxy-4,11b-dimethyltetradecahydro-6a,9-methanocyclohepta[a]naphthalene-4-carboxylate], the melting point was in the range of 119 to 122 °C. Besides, in data set [1], the inhibition at 10 µM came to 34.6 ± 2.98% and the inhibition at 30 µM came out at 95.8 ± 0.63%. In data set [2], the Papp at 4 h, 500 µM is 0.64 ± 0.03 ×10⁻⁶ cm/s and the “PAMPA-GI MR (membrane retention)” value amounted to 29.8 ± 0.3%. In addition, in data set [3], the inhibition at 10 µM is less than 20% and the inhibition at 30 µM is less than 20%. Moreover, in data set [4], the inhibition at 10 µM is less than 20% and the inhibition at 30 µM was determined as 101.1 ± 0.43%. In data set [5], the inhibition at 10 µM turned out to be 59.6 ± 2.73% and the inhibition at 30 µM turned out to be 96.42 ± 0.27%. For the same compound, the kinetic solubility at 2 h in data set [6] came out at 291 ± 35.5 µM (≈ 137 µg/mL). In data set [7], the inhibition at 10 µM was less than 20% and the inhibition at 30 µM stood at 95.77 ± 0.26%.

The compound `CC[C@H](NC[C@@]1(O)[C@H](O)[C@@]23CCC4[C@@](C)(CCC[C@@]4(C)C(=O)OC)C2CC[C@]1(O)C3)c1ccccc1` (stereo partly drawn) [Compound 16, (4R,6aR,7R,8R,9S,11bS)-Methyl 7,8,9-Trihydroxy-4,11b-dimethyl-8-((((S)-1-phenylpropyl)amino)methyl)tetradecahydro-6a,9-methanocyclohepta[a]naphthalene-4-carboxylate] came in with a melting point of 140 to 143 °C. Besides, in data set [1], the inhibition at 10 µM came out at 39.3 ± 1.99% and the inhibition at 30 µM worked out at 96.65 ± 0.37%. Besides, in data set [2], the “Intestinal-specific permeability (Pe), category in words” value is given as “poor permeability”; the Papp at 4 h, 500 µM stood at 0.25 ± 0.09 ×10⁻⁶ cm/s; the “PAMPA-GI MR (membrane retention)” value came out at 44.6 ± 4.2%. In addition, in data set [3], the inhibition at 10 µM was less than 20% and the inhibition at 30 µM turned out to be 96.73 ± 0.65%. In data set [4], the inhibition at 10 µM was less than 20% and the inhibition at 30 µM is 95.12 ± 0.41%. In addition, in data set [5], the “Antiproliferative effect / selectivity on MCF-7, in words” value is on record as “higher selectivity; also recorded: performed best”; the inhibition at 10 µM turned out to be 80.7 ± 2.37%; the inhibition at 30 µM was found to be 97.1 ± 0.23%. In addition, in data set [6], the “Kinetic aqueous solubility, category in words” value is “moderate” and the solubility (kinetic) at 2 h turned out to be 89.9 ± 8.5 µM (≈ 44.9 µg/mL). Besides, in data set [7], the “Antiproliferative effect on HeLa, in words” value was “moderate inhibition”; the inhibition at 10 µM was 53.5 ± 1.99%; the inhibition at 30 µM was found to be 98.33 ± 0.32%.

In turn, `COC(=O)[C@]1(C)CCC[C@@]2(C)C3CC[C@]4(O)C[C@@]3(CCC21)[C@@H](O)[C@]4(O)CNCc1ccc(F)cc1` (stereo partly drawn) [Compound 9, (4R,6aR,7R,8R,9S,11bS)-Methyl 8-(((4-Fluorobenzyl)amino)methyl)-7,8,9-trihydroxy-4,11b-dimethyltetradecahydro-6a,9-methanocyclohepta[a]naphthalene-4-carboxylate] displayed a melting point of 195 to 197 °C. For the same compound, in data set [1], the “Antiproliferative effect / selectivity on MDA-MB-231, in words” value was “decent activity; also recorded: smaller but also selective antiproliferative effect”; the inhibition at 10 µM turned out to be 83 ± 1.71%; the inhibition at 30 µM was found to be 93.63 ± 0.36%. Further, in data set [2], the Papp at 4 h, 500 µM was 0.4 ± 0.04 ×10⁻⁶ cm/s and the “PAMPA-GI MR (membrane retention)” value came out at 63.8 ± 4.9%. In addition, the “Antiproliferative effect on SiHa, in words” value in data set [3] (10 and 30 μM) is “modest inhibition”. In data set [3], the inhibition at 10 µM worked out at 54.6 ± 3.42% and the inhibition at 30 µM was 95.17 ± 0.37%. In data set [4], the inhibition at 10 µM stood at 25.9 ± 0.94% and the inhibition at 30 µM came out at 92.4 ± 1.01%. Moreover, in data set [5], the “Antiproliferative effect / selectivity on MCF-7, in words” value was “strong and selective antiproliferative effect; also recorded: performed best”; the inhibition at 10 µM came to 96.4 ± 0.47%; the inhibition at 30 µM turned out to be 96.19 ± 0.65%. Also, in data set [6], the “Kinetic aqueous solubility, category in words” value is reported as “moderate” and the solubility (kinetic) at 2 h turned out to be 42.1 ± 10.8 µM (≈ 20.6 µg/mL). In data set [7], the inhibition at 10 µM was 42.5 ± 1.42% and the inhibition at 30 µM came out at 96.8 ± 0.74%.

For `CC[C@@H](NC[C@@]1(O)[C@H](O)[C@@]23CCC4[C@@](C)(CCC[C@@]4(C)C(=O)OC)C2CC[C@]1(O)C3)c1ccccc1` (stereo partly drawn) [Compound 15, (4R,6aR,7R,8R,9S,11bS)-Methyl 7,8,9-Trihydroxy-4,11b-dimethyl-8-((((R)-1-phenylpropyl)amino)methyl)tetradecahydro-6a,9-methanocyclohepta[a]naphthalene-4-carboxylate], the melting point fell in the range of 138 to 141 °C. Moreover, in data set [1], the “Antiproliferative effect / selectivity on MDA-MB-231, in words” value was “decent activity; also recorded: smaller but also selective antiproliferative effect”; the inhibition at 10 µM was found to be 68.3 ± 2.86%; the inhibition at 30 µM worked out at 95.63 ± 0.45%. In data set [2], the “Intestinal-specific permeability (Pe), category in words” value is on record as “poor permeability”; the Papp at 4 h, 500 µM came out at 0.14 ± 0.04 ×10⁻⁶ cm/s; the “PAMPA-GI MR (membrane retention)” value was 46.8 ± 3.3%. In data set [3], the inhibition at 10 µM is 22.4 ± 1.42% and the inhibition at 30 µM worked out at 95.67 ± 0.76%. Further, in data set [4], the inhibition at 10 µM amounted to 21 ± 0.96% and the inhibition at 30 µM stood at 94.23 ± 0.31%. Moreover, in data set [5], the “Antiproliferative effect / selectivity on MCF-7, in words” value is “strong and selective antiproliferative effect; also recorded: performed best”; the inhibition at 10 µM came out at 91 ± 1.52%; the inhibition at 30 µM worked out at 96.47 ± 0.26%. The kinetic solubility at 2 h in data set [6] is 145 ± 28.2 µM (≈ 72.5 µg/mL). Also, in data set [7], the “Antiproliferative effect on HeLa, in words” value is on record as “modest inhibition”; the inhibition at 10 µM came to 63.6 ± 1.54%; the inhibition at 30 µM was 97.25 ± 0.5%.

For the origin of these results see paper PMC9861858, “Stereoselective Synthesis and Antiproliferative Activities of Tetrafunctional Diterpene Steviol Derivatives” (International Journal of Molecular Sciences, 2023).
